Experimental data: PMC5971061, “Differential Effects of Linkers on the Activity of Amphiphilic Tobramycin Antifungals” (Molecules : A Journal of Synthetic Chemistry and Natural …, 2018)
Values after ≈ are worked out from the molar mass of the structure shown.

How the values were obtained:
[1] = test system: C. albicans ATCC 10231 (strain A); experiment: MIC, broth microdilution (CLSI M27-A3), yeast strain A; format: cell-based, Candida albicans
Experimental: (§1) The final concentrations of compounds 3, 4, 7a, 7b, 9, and 16, as well as that of TOB tested in this study ranged from 0.24–62.5 μg/mL. CAS was used as a positive control and the final concentrations tested for CAS ranged from 0.03–31.3 μg/mL. Briefly, overnight yeast cultures were grown in yeast peptone dextrose (YPD) broth and the cell density was adjusted to an OD600 of 0.12 (~1 × 10^6 CFU/mL) by using a spectrophotometer. Yeast cell suspensions were further diluted to achieve 1–5 × 10^3 CFU/mL in RPMI 1640 medium, and 100 μL of these yeast cells was added to 96-well microtiter plates containing RPMI 1640 medium and titrated compounds. Each test was performed in triplicate. The plates were incubated at 35 °C for 48 h.

[2] = test system: C. albicans ATCC 10231 (strain A); experiment: Time-kill assay, strain A; format: cell-based, Candida albicans
Experimental: (§2) Time-kill assays were used to assess the inhibitory efficiency of 7b against three yeast strains, C. albicans ATCC 10231 (strain A), C. parapsilosis ATCC 22019 (strain J), and C. neoformans clinical isolate CN1. The protocol for time-kill assays followed methods previously described with minor modifications. Yeast cultures were grown overnight in YPD broth at 35 °C with shaking (200 rpm). A working stock of fungal cells was made by diluting cultures in RPMI 1640 medium to an OD600 of 0.125, approximately 1 × 10^6 CFU/mL. From the working stock, 100 μL of cells was added to 4.9 mL of RPMI 1640 medium in sterile culture tubes, making the starting fungal cell concentration […]. Compounds were then added to the fungal cells. The treatment conditions included sterile control, growth control, TOB (parent; negative control), voriconazole (VOR) at 1× MIC (positive control), 7b at 1× and 4× MIC. The treated fungal cultures were incubated at 35 °C with shaking (200 rpm) for 24 h. The samples were taken from the different treatments at regular time points (0, 3, 6, 9, 12, and 24 h.) and plated in duplicates. For each time point, cultures were vortexed, 100 μL of culture was aspirated, and 10-fold serial dilutions were made in sterile ddH2O. From the appropriate dilutions, 100 μL of fungal suspension was spread on PDA plates and incubated at 35 °C for 48 h before the colony counts were determined. At 24 h, 50 μL of 1 mM resazurin was added to the treatments and incubated at 35 °C with rotation for 2 h in the dark for visual inspection. Experiments were performed in duplicate.

[3] = test system: C. neoformans (strain CN1); experiment: Time-kill assay, CN1; format: cell-based, Cryptococcus neoformans; conditions: controls TOB 15.6 μg/mL and VOR 1× MIC, 24-h period
Experimental: as §2

[4] = test system: Candida glabrata clinical isolate CG3; experiment: MIC, broth microdilution (CLSI M27-A3), CG3; format: cell-based; conditions: Nakaseomyces glabratus; MIC-0, CG3, 35 °C 48 h
Experimental: as §1

[5] = test system: Aspergillus nidulans ATCC 38163 (strain L); experiment: MIC, filamentous fungi (CLSI M38-A2), strain L; format: cell-based; conditions: Aspergillus nidulans, ATCC38163, 72 h, MIC-0, strain L, 35 °C 72 h; read-out: MIC
Experimental: (§3) The spores were harvested from sporulating cultures growing on potato dextrose agar (PDA) by filtration through sterile glass wool and enumerated by using a hemocytometer (Hausser Scientific, Horsham, PA, USA) to obtain the desired inoculum size. Two-fold serial dilutions of compounds 3, 4, 7a, 7b, 9, and 16, as well as CAS and TOB were made in sterile 96-well microtiter plates to obtain the final concentration range of 0.24–62.5 μg/mL for TOB and TOB derivatives as well as 0.03–31.3 μg/mL for CAS in the RPMI 1640 medium. The spore suspensions were added to the wells to afford a final concentration of 5 × 10^5 spores/mL. The plates were incubated at 35 °C for 72 h. […] Each test was performed in triplicate.

[6] = test system: Cryptococcus neoformans clinical isolate CN2; experiment: MIC, broth microdilution (CLSI M27-A3), CN2; format: cell-based; conditions: MIC-0, CN2, 35 °C 48 h
Experimental: as §1

[7] = test system: C. albicans ATCC 90819(R) (strain D); experiment: MIC, broth microdilution (CLSI M27-A3), yeast strain D; format: cell-based; conditions: Candida albicans, ATCC90819; MIC-0, strain D, 35 °C 48 h
Experimental: as §1

[8] = test system: Candida glabrata ATCC 2001 (strain H); experiment: MIC, broth microdilution (CLSI M27-A3), yeast strain H; format: cell-based; conditions: Nakaseomyces glabratus, ATCC2001; MIC-0, strain H, 35 °C 48 h
Experimental: as §1

[9] = test system: Candida parapsilosis clinical isolate CP2; experiment: MIC, broth microdilution (CLSI M27-A3), CP2; format: cell-based; conditions: Lodderomyces parapsilosis; MIC-0, CP2, 35 °C 48 h
Experimental: as §1

[10] = test system: C. albicans ATCC MYA-1237(R) (strain F); experiment: MIC, broth microdilution (CLSI M27-A3), yeast strain F; format: cell-based; conditions: Candida albicans; MIC-0, strain F, 35 °C 48 h
Experimental: as §1

[11] = test system: Cryptococcus neoformans clinical isolate CN1; experiment: MIC, broth microdilution (CLSI M27-A3), CN1; format: cell-based; conditions: MIC-0, CN1, 35 °C 48 h
Experimental: as §1

[12] = test system: Aspergillus flavus ATCC MYA-3631 (strain K); experiment: MIC, filamentous fungi (CLSI M38-A2), strain K; format: cell-based; conditions: Aspergillus flavus, 72 h, MIC-0, strain K, 35 °C 72 h; read-out: MIC
Experimental: as §3

[13] = test system: C. albicans ATCC MYA-1003(R) (strain G); experiment: MIC, broth microdilution (CLSI M27-A3), yeast strain G; format: cell-based; conditions: Candida albicans; MIC-0, strain G, 35 °C 48 h
Experimental: as §1

[14] = test system: Candida parapsilosis ATCC 22019 (strain J); experiment: MIC, broth microdilution (CLSI M27-A3), yeast strain J; format: cell-based; conditions: Lodderomyces parapsilosis, ATCC22019; MIC-0, strain J, 35 °C 48 h
Experimental: as §1

[15] = test system: Candida parapsilosis clinical isolate CP1; experiment: MIC, broth microdilution (CLSI M27-A3), CP1; format: cell-based; conditions: Lodderomyces parapsilosis; MIC-0, CP1, 35 °C 48 h
Experimental: as §1

[16] = test system: C. albicans ATCC MYA-2310(S) (strain E); experiment: MIC, broth microdilution (CLSI M27-A3), yeast strain E; format: cell-based; conditions: Candida albicans; MIC-0, strain E, 35 °C 48 h
Experimental: as §1

[17] = test system: Aspergillus terreus ATCC MYA-3633 (strain M); experiment: MIC, filamentous fungi (CLSI M38-A2), strain M; format: cell-based; conditions: MIC-0, strain M, 35 °C 72 h
Experimental: as §3

[18] = test system: C. albicans ATCC 64124 (strain B); experiment: MIC, broth microdilution (CLSI M27-A3), yeast strain B; format: cell-based; conditions: Candida albicans, ATCC64124; MIC-0, strain B, 35 °C 48 h
Experimental: as §1

[19] = test system: C. albicans ATCC MYA-2876(S) (strain C); experiment: MIC, broth microdilution (CLSI M27-A3), yeast strain C; format: cell-based; conditions: Candida albicans; MIC-0, strain C, 35 °C 48 h
Experimental: as §1

[20] = test system: Candida glabrata clinical isolate CG1; experiment: MIC, broth microdilution (CLSI M27-A3), CG1; format: cell-based; conditions: Nakaseomyces glabratus; MIC-0, CG1, 35 °C 48 h
Experimental: as §1

[21] = test system: Cryptococcus neoformans clinical isolate CN3; experiment: MIC, broth microdilution (CLSI M27-A3), CN3; format: cell-based; conditions: MIC-0, CN3, 35 °C 48 h
Experimental: as §1

[22] = test system: Candida parapsilosis clinical isolate CP3; experiment: MIC, broth microdilution (CLSI M27-A3), CP3; format: cell-based; conditions: MIC-0, CP3, 35 °C 48 h
Experimental: as §1

[23] = test system: Candida glabrata clinical isolate CG2; experiment: MIC, broth microdilution (CLSI M27-A3), CG2; format: cell-based; conditions: Nakaseomyces glabratus; MIC-0, CG2, 35 °C 48 h
Experimental: as §1

[24] = test system: Candida krusei ATCC 6258 (strain I); experiment: MIC, broth microdilution (CLSI M27-A3), yeast strain I; format: cell-based; conditions: Pichia kudriavzevii, ATCC6258; MIC-0, strain I, 35 °C 48 h
Experimental: as §1

[25] = test system: C. neoformans clinical isolates CN1-3; experiment: MIC across C. neoformans clinical isolates CN1-3; format: cell-based, Cryptococcus neoformans
Experimental: as §1

## C[C@@H](c1ncncc1F)[C@](O)(Cn1cncn1)c1ccc(F)cc1F [VOR, voriconazole, reference compound]
[1]; as used in the time-kill study, strain A
  1× MIC value: 1.0 µg/mL
[2]; 1× MIC (7b 3.9 μg/mL; VOR 1.0 μg/mL), after 9 h of treatment
  reduction of CFU: ≥ 2 log10
[2]; 24-h period, TOB 15.6 μg/mL, VOR 1× MIC 1.0 μg/mL
  effect on growth (time-kill, in words): maintained a fungistatic activity up to the 24-h period
[3]
  effect on growth (time-kill, in words): little to no growth inhibitory effect

## CC[C@H](C)C[C@H](C)CCCCCCCCC(=O)N[C@H]1C[C@@H](O)[C@@H](NCCN)NC(=O)[C@@H]2[C@@H](O)CCN2C(=O)[C@H]([C@H](O)CCN)NC(=O)[C@H]([C@H](O)[C@@H](O)c2ccc(O)cc2)NC(=O)[C@@H]2C[C@@H](O)CN2C(=O)[C@H]([C@@H](C)O)NC1=O [CAS, caspofungin, reference compound]
[1]; Candida albicans, ATCC10231, MIC-0, strain A, 35 °C 48 h
  MIC: 0.975 µg/mL (≈ 0.892 µM)
[4]
  MIC: 0.975 µg/mL (≈ 0.892 µM)
[5]
  MIC: > 31.3 µg/mL
[6]
  MIC: 31.3 µg/mL (≈ 28.6 µM)
[7]
  MIC: 0.12 µg/mL (≈ 0.11 µM)
[8]
  MIC: 0.06 µg/mL (≈ 0.0549 µM)
[9]
  MIC: 0.48 µg/mL (≈ 0.439 µM)
[10]
  MIC: 0.24 µg/mL (≈ 0.22 µM)
[11]
  MIC: 15.6 µg/mL (≈ 14.3 µM)
[12]
  MIC: > 31.3 µg/mL
[13]
  MIC: 0.48 µg/mL (≈ 0.439 µM)
[14]
  MIC: 1.95 µg/mL (≈ 1.78 µM)
[15]
  MIC: 0.48 µg/mL (≈ 0.439 µM)
[16]
  MIC: 0.12 µg/mL (≈ 0.11 µM)
[17]
  MIC: > 31.3 µg/mL
[18]
  MIC: 0.24 µg/mL (≈ 0.22 µM)
[19]
  MIC: 0.06 µg/mL (≈ 0.0549 µM)
[20]
  MIC: 1.95 µg/mL (≈ 1.78 µM)
[21]
  MIC: 15.6 µg/mL (≈ 14.3 µM)
[22]
  MIC: 0.48 µg/mL (≈ 0.439 µM)
[23]
  MIC: 0.24 µg/mL (≈ 0.22 µM)
[24]
  MIC: 0.48 µg/mL (≈ 0.439 µM)
[25]
  MIC values: low to no activity
